pEC50, pIC50: −log10 of the molar value. Where two headings read alike, the source gives them in different places.
Experiments:
PAK4 = PAK4 (Homo sapiens, UniProt O96013); assay: Z'-LYTE FRET kinase inhibition assay; assay type: biochemical; set-up: purchased Invitrogen
Text: […]. […] […].

PAK1 [1] = biological target: T1, PAK1 (Homo sapiens, UniProt Q13153); assay: Z'-LYTE FRET kinase inhibition assay; assay type: biochemical; set-up: human recombinant PAK1 (kinase domain); purchased Invitrogen PV2830; conditions: for PAK1 inhibitory activity and selectivity of conjugate: vs PAK2 and PAK4
Description: The activity/inhibition of human recombinant PAK1 (kinase domain) or PAK2 (full length) was determined by measuring the phosphorylation of a FRET peptide substrate (Ser/Thr19) labeled with Coumarin and Fluorescein using Z′-LYTE™ assay (Invitrogen). The 10 μL assay mixtures contained 50 mM HEPES (pH 7.5), 0.01% Brij-35, 10 mM MgCl2, 1 mM EGTA, 2 μM FRET peptide substrate, and PAK enzyme (20 pM PAK1; 50 pM PAK2). Incubations were carried out at 22° C. in black polypropylene 384-well plates (Corning Costar). […] Following the 60-minute incubation, the assay mixtures were quenched by the addition of 5 μL of Z′-LYTE™ development reagent, and 1 hour later the emissions of Coumarin (445 nm) and Fluorescein (520 nm) were determined after excitation at 400 nm using an Envision plate reader (Perkin Elmer).
Target sequence in this assay (Q13153 270-521 limits assumed): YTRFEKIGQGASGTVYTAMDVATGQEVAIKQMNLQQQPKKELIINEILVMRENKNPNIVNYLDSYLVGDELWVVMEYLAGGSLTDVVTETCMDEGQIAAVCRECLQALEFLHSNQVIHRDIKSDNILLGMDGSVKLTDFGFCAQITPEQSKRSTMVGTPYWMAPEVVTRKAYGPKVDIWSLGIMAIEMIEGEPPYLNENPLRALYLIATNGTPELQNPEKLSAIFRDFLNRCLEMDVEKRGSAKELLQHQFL

PAK2 [2] = biological target: T2, PAK2 (Homo sapiens, UniProt Q13177); assay: Z'-LYTE FRET kinase inhibition assay; assay type: biochemical; set-up: PAK2 (full length); purchased Invitrogen PV4565
Description: The activity/inhibition of human recombinant PAK1 (kinase domain) or PAK2 (full length) was determined by measuring the phosphorylation of a FRET peptide substrate (Ser/Thr19) labeled with Coumarin and Fluorescein using Z′-LYTE™ assay (Invitrogen). The 10 μL assay mixtures contained 50 mM HEPES (pH 7.5), 0.01% Brij-35, 10 mM MgCl2, 1 mM EGTA, 2 μM FRET peptide substrate, and PAK enzyme (20 pM PAK1; 50 pM PAK2). Incubations were carried out at 22° C. in black polypropylene 384-well plates (Corning Costar). Prior to the assay, enzyme, FRET peptide substrate and serially diluted test compounds were preincubated together in assay buffer (7.5 μL) for 10 minutes, and the assay was initiated by the addition of 2.5 μL assay buffer containing 4×ATP (160 μM PAK1; 480 μM PAK2). Following the 60-minute incubation, the assay mixtures were quenched by the addition of 5 μL of Z′-LYTE™ development reagent, and 1 hour later the emissions of Coumarin (445 nm) and Fluorescein (520 nm) were determined after excitation at 400 nm using an Envision plate reader (Perkin Elmer). […].

PAK1 [3] = biological target: T1, PAK1; assay: PAK1 degradation in MCF7 and OVCAR3 cells, immunoblot; assay type: cell-based; set-up: endogenous in cells; host or cells: MCF7, OVCAR3; conditions: MCF7 and OVCAR3 cells
Description: Protein lysates were harvested at the times specified.
Cell lysates were obtained by centrifugation at 13,500 rpm for 15 minutes at 4° C. BCA protein assay (Thermo Scientific) was used to determine protein concentration then equal amounts of total proteins were separated by SDS-PAGE (Bio-Rad) and transferred to PVDF membrane (Thermo Scientific) at 100V for 2 hours. Membranes were blocked in 5% (w/v) non-fat dry milk in tris-buffered saline with 0.1% Tween-20 (TBS-T) for 1 hour and incubated with primary antibody at 4° C. for overnight. Membranes were washed with TBS-T on the next day and incubated with HRP-conjugated secondary antibodies (Millipore) at room temperature for 1 hour and exposed to films after washing.
Target sequence in this assay (Q13153 whole entry, the tested form may be a part): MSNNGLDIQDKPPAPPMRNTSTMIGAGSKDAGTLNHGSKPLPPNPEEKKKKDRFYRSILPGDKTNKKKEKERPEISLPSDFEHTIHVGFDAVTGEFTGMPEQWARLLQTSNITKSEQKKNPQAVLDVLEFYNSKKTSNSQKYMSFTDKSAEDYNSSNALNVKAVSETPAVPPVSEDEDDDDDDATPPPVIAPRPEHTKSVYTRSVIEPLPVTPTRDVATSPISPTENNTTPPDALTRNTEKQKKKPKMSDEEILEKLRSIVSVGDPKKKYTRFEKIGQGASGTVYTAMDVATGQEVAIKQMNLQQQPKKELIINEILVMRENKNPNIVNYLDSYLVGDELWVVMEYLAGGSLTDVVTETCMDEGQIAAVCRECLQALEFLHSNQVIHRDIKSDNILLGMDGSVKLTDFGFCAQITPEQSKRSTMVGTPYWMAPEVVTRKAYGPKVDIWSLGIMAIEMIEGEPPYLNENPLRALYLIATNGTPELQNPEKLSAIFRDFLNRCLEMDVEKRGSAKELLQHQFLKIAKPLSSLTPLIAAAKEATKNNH

OVCAR3 cells = assay: Cell proliferation, MTT assay; assay type: cell-based; conditions: for Effect on cell proliferation: OVCAR3 cells; for pEC50: Homo sapiens, OVCAR-3, read-out: EC50, anti-proliferative, OVCAR3 cells
Description: […]. Cell proliferation was assessed by MTT assay. […].
Cells were plated at 2×10^3 cells per well in 96-well plates overnight and treated with various concentrations of Pak degraders for 72 hours. Cell viability was measured by MTT assay and the half maximal inhibitory concentration (IC50) was calculated using GraphPad Prism. Triplicates were performed for each sample and medium alone was used as a blank.
The anti-proliferative effects of PAK1 degradation and inhibition were evaluated. […]. […] […]. […] […].

PAK2 [4] = biological target: T2, PAK2; assay: PAK2 degradation in MCF7 and OVCAR3 cells, immunoblot; assay type: cell-based; set-up: due to their high expression of both PAK1 and PAK2; endogenous in cells; host or cells: MCF7, OVCAR3
Description: […]. Cells were incubated overnight then treated with various concentrations of Pak degraders alone or together with bortezomib or lenalidomide for 24 hours. Protein lysates were harvested at the times specified.
Cells were washed once in PBS and lysed in RIPA buffer (50 mM Tris-HCl, 150 mM NaCl, 0.25% (w/v) sodium deoxycholate, 1% (w/v) NP-40, pH 7.5) containing protease inhibitor cocktail (Roche) and phosphatase inhibitor cocktail (Roche) for 30 minutes on ice. Cell lysates were obtained by centrifugation at 13,500 rpm for 15 minutes at 4° C. BCA protein assay (Thermo Scientific) was used to determine protein concentration then equal amounts of total proteins were separated by SDS-PAGE (Bio-Rad) and transferred to PVDF membrane (Thermo Scientific) at 100V for 2 hours. Membranes were blocked in 5% (w/v) non-fat dry milk in tris-buffered saline with 0.1% Tween-20 (TBS-T) for 1 hour and incubated with primary antibody at 4° C. for overnight. […]
After verifying that BJG-05-039 retained specificity for PAK1, its degradation activity in cells was characterized. First, the PAK1 degrader was evaluated in the breast cancer cell line MCF7 and the ovarian cancer cell line OVCAR3 due to their high expression of both PAK1 and PAK2 and their known dependence on PAK1 (Prudnikova, et al. (2016) Oncogene 35:2178-2185; Shrestha, et al. (2012) Oncogene 31:3397-3408). […]

MCF7 cells = assay: Cell proliferation, MTT assay; assay type: cell-based; conditions: for Effect on cell proliferation: MCF7 cells; for pEC50: Homo sapiens, MCF7, read-out: EC50, anti-proliferative, MCF7 cells
Description: (§1) Cell proliferation was assessed by MTT assay.
(§2) Cell viability was measured by MTT assay and the half maximal inhibitory concentration (IC50) was calculated using GraphPad Prism. Triplicates were performed for each sample and medium alone was used as a blank.
(§3) The anti-proliferative effects of PAK1 degradation and inhibition were evaluated.

[5] = cited from earlier work
Hey A8 cells = assay: Cell proliferation, MTT assay; assay type: cell-based; conditions: HEY A8, read-out: EC50, anti-proliferative
Description: as §1, §2, §3

OMM1 cells = assay: Cell proliferation, MTT assay; assay type: cell-based; conditions: OMM-1, read-out: EC50, anti-proliferative
Description: as §1, §2, §3

[6] = cited from earlier work; remark: listed apart in the source

Chain of PAK4 (O96013 whole entry): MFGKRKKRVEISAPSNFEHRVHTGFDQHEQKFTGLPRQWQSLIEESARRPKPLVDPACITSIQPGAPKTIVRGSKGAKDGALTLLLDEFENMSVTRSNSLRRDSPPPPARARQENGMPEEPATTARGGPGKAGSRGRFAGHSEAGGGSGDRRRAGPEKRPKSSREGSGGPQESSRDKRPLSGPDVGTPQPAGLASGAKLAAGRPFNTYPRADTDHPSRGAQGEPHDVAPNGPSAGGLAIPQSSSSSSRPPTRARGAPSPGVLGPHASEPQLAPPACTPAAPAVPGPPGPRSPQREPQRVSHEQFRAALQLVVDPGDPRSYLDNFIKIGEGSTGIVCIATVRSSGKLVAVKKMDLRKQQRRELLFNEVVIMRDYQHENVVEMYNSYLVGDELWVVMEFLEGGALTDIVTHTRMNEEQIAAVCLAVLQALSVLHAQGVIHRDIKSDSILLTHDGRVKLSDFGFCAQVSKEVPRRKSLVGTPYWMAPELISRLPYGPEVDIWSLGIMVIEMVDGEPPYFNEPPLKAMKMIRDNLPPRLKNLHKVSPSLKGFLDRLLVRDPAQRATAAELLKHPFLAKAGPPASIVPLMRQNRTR
T2 sequence (Q13177 whole entry, the tested form may be a part): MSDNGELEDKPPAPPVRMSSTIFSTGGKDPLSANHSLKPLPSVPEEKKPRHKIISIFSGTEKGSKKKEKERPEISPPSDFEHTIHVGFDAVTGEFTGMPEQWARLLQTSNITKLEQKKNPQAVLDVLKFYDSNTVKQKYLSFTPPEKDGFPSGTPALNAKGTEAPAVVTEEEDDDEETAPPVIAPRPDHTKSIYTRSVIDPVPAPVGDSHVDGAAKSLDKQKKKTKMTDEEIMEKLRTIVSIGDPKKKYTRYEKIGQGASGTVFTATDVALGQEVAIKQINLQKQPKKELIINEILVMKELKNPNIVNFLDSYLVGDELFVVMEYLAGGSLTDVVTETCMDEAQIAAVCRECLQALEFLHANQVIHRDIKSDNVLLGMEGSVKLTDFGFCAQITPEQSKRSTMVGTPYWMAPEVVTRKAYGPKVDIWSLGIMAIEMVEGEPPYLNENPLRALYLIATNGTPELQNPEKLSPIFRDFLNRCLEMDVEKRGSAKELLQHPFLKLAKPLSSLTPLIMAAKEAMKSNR

SMILES	pIC50 (PAK4)	pIC50 (PAK1 [1])	pIC50 (PAK2 [2])	also measured
O=C1CCC(N2C(=O)c3cccc(NCCOCCOCCC(=O)N4CC[C@H](NC5=Nc6cc(F)ccc6N(CC(F)F)c6ccc(Cl)cc65)C4)c3C2=O)C(=O)N1 (some centres unmarked) [BJG-05-014]	6.82	6.36	6.14	PAK1 inhibitory activity and selectivity of conjugate (PAK1 [1]): retained PAK1 inhibitory activity and selectivity
O=C1CCC(N2C(=O)c3cccc(NCCCCCCC(=O)N4CC[C@H](NC5=Nc6cc(F)ccc6N(CC(F)F)c6ccc(Cl)cc65)C4)c3C2=O)C(=O)N1 (some centres unmarked) [BJG-05-017]	< 6.00	< 5.95	< 5.48	–
O=C(COc1cccc2c1C(=O)N(C1CCC(=O)NC1=O)C2=O)NCCCCCCC(=O)N1CC[C@H](NC2=Nc3cc(F)ccc3N(CC(F)F)c3ccc(Cl)cc32)C1 (some centres unmarked) [BJG-05-018]	< 5.00	< 5.48	< 5.00	–
O=C1CCC(N2C(=O)c3cccc(NCCCC(=O)N4CC[C@H](NC5=Nc6cc(F)ccc6N(CC(F)F)c6ccc(Cl)cc65)C4)c3C2=O)C(=O)N1 (some centres unmarked) [BJG-05-019]	< 5.00	5.20	< 5.00	–
Cc1ncsc1-c1ccc([C@H](C)NC(=O)C2C[C@@H](O)CN2C(=O)[C@@H](NC(=O)CCCCCCCC(=O)N2CC[C@H](NC3=Nc4cc(F)ccc4N(CC(F)F)c4ccc(Cl)cc43)C2)C(C)(C)C)cc1 (some centres unmarked) [BJG-05-020]	< 5.00	< 5.00	< 5.00	–
O=C1CCC(N2C(=O)c3cccc(NCCOCCOCCNC(=O)N4CC[C@H](NC5=Nc6cc(F)ccc6N(CC(F)F)c6ccc(Cl)cc65)C4)c3C2=O)C(=O)N1 (some centres unmarked) [BJG-05-022]	5.41	5.83	5.17	–
O=C1CCC(N2C(=O)c3cccc(NCCCCCNC(=O)N4CC[C@H](NC5=Nc6cc(F)ccc6N(CC(F)F)c6ccc(Cl)cc65)C4)c3C2=O)C(=O)N1 (some centres unmarked) [BJG-05-027]	< 5.00	6.23	< 5.00	PAK1 inhibitory activity and selectivity of conjugate (PAK1 [1]): retained PAK1 inhibitory activity and selectivity
Cc1ccc(CO)cc1N(Cc1ccccc1C#N)c1nc(Nc2ccc(N3CCN(CCOCCOCCNc4cccc5c4C(=O)N(C4CCC(=O)NC4=O)C5=O)CC3)c(S(C)(=O)=O)c2)ncc1F (centres unmarked) [BJG-05-093, 2-(((2-((4-(4-(2-(2-(2-((2-(2,6-Dioxopiperidin-3-yl)-1,3-dioxoisoindolin-4-yl)amino)ethoxy)ethoxy)ethyl)piperazin-1-yl)-3-(methylsulfonyl)phenyl)amino)-5-fluoropyrimidin-4-yl)(5-(hydroxymethyl)-2-methylphenyl)amino)methyl)benzonitrile]	–	7.49	–	–
Cc1ccc(CO)cc1N(Cc1ccccc1C#N)c1nc(Nc2ccc(N3CCN(C(=O)CCOCCOCCNc4cccc5c4C(=O)N(C4CCC(=O)NC4=O)C5=O)CC3)c(S(C)(=O)=O)c2)ncc1F (centres unmarked) [BJG-05-094, 2-(((2-((4-(4-(3-(2-(2-((2-(2,6-Dioxopiperidin-3-yl)-1,3-dioxoisoindolin-4-yl)amino)ethoxy)ethoxy)propanoyl)piperazin-1-yl)-3-(methylsulfonyl)phenyl)amino)-5-fluoropyrimidin-4-yl)(5-(hydroxymethyl)-2-methylphenyl)amino)methyl)benzonitrile]	–	6.99	–	–
Cc1ccc(CO)cc1N(Cc1ccccc1C#N)c1nc(Nc2ccc(N3CCN(CCOCCOCCOCCOCCNc4cccc5c4C(=O)N(C4CCC(=O)NC4=O)C5=O)CC3)c(S(C)(=O)=O)c2)ncc1F (centres unmarked) [BJG-05-095, 2-(((2-((4-(4-(14-((2-(2,6-Dioxopiperidin-3-yl)-1,3-dioxoisoindolin-4-yl)amino)-3,6,9,12-tetraoxatetradecyl)piperazin-1-yl)-3-(methylsulfonyl)phenyl)amino)-5-fluoropyrimidin-4-yl)(5-(hydroxymethyl)-2-methylphenyl)amino)methyl)benzonitrile]	–	7.44	–	–
CN1C(=O)CCC(N2C(=O)c3cccc(NCCCCCCCCNC(=O)N4CC[C@H](NC5=Nc6cc(F)ccc6N(CC(F)F)c6ccc(Cl)cc65)C4)c3C2=O)C1=O (stereo partly drawn) [BJG-05-098, (3S)-3-((2-Chloro-5-(2,2-difluoroethyl)-8-fluoro-5H-dibenzo[b,e][1,4]diazepin-11-yl)amino)-N-(8-((2-(J-methyl-2,6-dioxopiperidin-3-yl)-1,3-dioxoisoindolin-4-yl)amino)octyl)pyrrolidine-1-carboxamide]	–	–	–	PAK1 degradation (PAK1 [3]): PAK1 degradation was not observed; Effect on cell proliferation (OVCAR3 cells): did not affect cell proliferation; PAK2 degradation (PAK2 [4]): did not induce degradation of PAK1 or PAK2; Effect on cell proliferation (MCF7 cells): did not affect cell proliferation
CC(C)NC(=O)N1CC[C@H](NC2=Nc3cc(F)ccc3N(CC(F)F)c3ccc(Cl)cc32)C1 [NVS-PAK1-1, reference compound]	< 5.00	–	–	pEC50 (OVCAR3 cells; first statement of b311): 5.43; pEC50 (OVCAR3 cells; second listing of b311): 5.05; Half-life in rat liver microsomes [5]: short half-life; pEC50 (Hey A8 cells): 4.47; pEC50 (MCF7 cells; first statement of b311): 4.92; pEC50 (MCF7 cells; second listing of b311): 4.93; pEC50 (OMM1 cells): 4.92; In vivo half-life [6]: short in vivo half-life
Nc1cccc2c1CN(C1CCC(=O)NC1=O)C2=O (centres unmarked) [lenalidomide, reference compound]	–	–	–	Effect on cell proliferation (OVCAR3 cells): lacked significant antiproliferative effects; Effect on cell proliferation (MCF7 cells): lacked significant antiproliferative effects

— US20250312462A1, “PAK1 DEGRADERS AND METHODS OF USE THEREOF” (INSTITUTE FOR CANCER RESEARCH D/B/A THE RESEARCH INSTITUTE …, priority 2022, published 2025)
